Experimental data: patent US7220755B2, “42-O-alkoxyalkyl rapamycin derivatives and compositions comprising same” (Biosensors International Group, Ltd., priority 2003, dated 2007)
“Also recorded” adds a separate entry of the source.

What was measured:
[1] = system: pig coronary artery (restenosis after overstretch injury); test: Pig coronary artery overstretch injury model with drug-eluting stents; type: in vivo; details: for Diameter stenosis: lower score indicates higher efficacy
Procedure: In another study, stents carrying 42-O-(2-ethoxyethyl) rapamycin in the form of a polymer (poly-dl-lactic acid) coating were prepared for insertion into pigs with a vessel overstretch injury to the coronary artery. Comparative and control stents includes bare metal stents, stents having a polymer coating of poly-dl-lactic acid absent drug, stents carrying rapamycin in a poly-dl-lactic acid polymer coating, and stents carrying everolimus in a poly-dl-lactic acid polymer coating. The stents were inserted into vessels which seriously injured (averaging approximately 36% overstretch injury of the vessel) using an angioplasty balloon. […] In this way, it was possible to assess the relative effectiveness of the various test compounds presented to the vessels on the same metal stent/polymer platform. At the time of insertion, the extent of overstretch was recorded as a percent balloon/artery (B/A) ratio.

[2] = cited from earlier work
[3] = system: pig coronary arteries (restenosis); test: 30-day implantation of drug-eluting stents in pig coronary arteries (late loss vs injury score); details: 30 days in pig vessels; for intercept of the zero injury (late loss) / neointimal response to injury (slope of the regression line of late loss vs injury score): FIG. 10
Procedure: After preparation of the stents having a polymer-drug coating, they were implanted, as described in Example 5, into pigs for a thirty day period.
As described in Example 5, nine stents eluting 42-O-(2-ethoxyethyl) rapamycin from a polymer layer of poly-lactic acid were implanted in pigs and six control, bare metal stents were implanted. […] Quantitative coronary angiography was performed to measure the vessel lumen diameter immediately before and after stent placement and also 30 days later just prior to the follow-up angiogram taken at animal sacrifice. […] Percent stenosis (% stenosis) was determined from the measurements as: % Stenosis=[(RVD−MLD)/RVD]×100 where MLD is minimum lumen diameter and RVD is distal and proximal reference vessel diameter. The stent to artery ratio was also calculated from these measurements. The angiographic percent stenosis was calculated from the measurements of minimum lumen diameter obtained at the follow-up angiogram.
The photographs in FIGS. 5–9 permit determination via planimetry of the area of new tissue inside the stent after 30 days in vivo. The average thickness of new tissue formed inside the stent for each implant was determined and plotted against an injury score, also determined after the 30 day test period. A least-squares linear regression analysis of the data provides a sensitive method to compare the therapeutic benefit of different stent compositions.
The degree of vascular injury was also quantified by assigning an “injury score” based on the amount and length of tear of the different wall structures. The degree of injury was calculated as follows: • 0=intact internal elastic lamina • 1=ruptured internal elastic lamina with exposure to superficial medial layers (minor injury) • 2=ruptured internal elastic lamina with exposure to deeper medial layers (medial dissection) • 3=ruptured external elastic lamina with exposure to the adventitia. The mean injury score for each arterial segment was calculated by dividing the sum of injury scores at each stent strut site by the total number of stent struts in the proximal, middle, and distal stent sections using the method described by Schwartz et al. (J. Am. Coll. Cardiol., 19:267–274 (1992)).
After analysis of the late loss and injury scores, the average late loss as a function of injury score was plotted for the test stents in each animal. […] The stents were in place in the vessel for 30 days.
Three days prior to insertion of stents each animal received 650 mg aspirin, 500 mg ticlopidine daily, and 120 mg verapamil daily. Aspirin (325 mg) daily was given throughout the duration of the study. The animals were fasted twelve hours prior to stent placement.
For stent placement, each animal was immobilized with an intramuscular injection of 0.5 mg/kg acepromazine, 20 mg/kg ketamine, and 0.05 mg/kg atropine.

[4] = system: human smooth muscle cells; test: In vitro potency: growth suppression of smooth muscle cell cultures (human); type: cell-based; details: FIG. 2, over five orders of magnitude concentration
Procedure: The ability of the cell culture to reproduce was assessed after drug exposure by addition of a colored reagent which causes a color change in the surviving cells, followed by cell cytometry. The ability of the cells to migrate was assessed when cells from the culture moved through a porous membrane barrier adjacent the culture, and again by staining and cell cytometry. The results of these tests are shown in FIG. 2 for human smooth muscle cells.

[5] = In vitro release rate of drug from polymer-coated stents into ethanol-water bath; type: physicochemical; details: at 96 hours; unstirred ethanol-water bath at 37° C.; poly-dl-lactic acid coated stents, average drug load 230 μg
Procedure: The in vitro release rate of drug from the stents into an unstirred, ethanol-water bath at 37° C. was measured and the results are shown in FIG. 4. The six curves in FIG. 4 correspond to six stents carrying a poly-dl-lactic acid polymer loaded with 42-O-(2-ethoxyethyl) rapamycin. Each stent held between about 224–235 μg of drug, with an average drug load of 230 μg. The polymer-drug coated stents were sterilized at 25 KGy or at 27.5 KGy prior to measuring the release rate.
100 mg poly (dl-lactide) was dissolved into 2 mL acetone at room temperature. 5 mg 42-O-(2-ethoxyethyl) rapamycin was placed in a vial and 100 μL lactide solution added. A microprocessor-controlled syringe pump was used to precision dispense 4.5 μL of the drug containing poly-dl-lactide solution to the outer surface of a metal S-Stent (available from Biosensors International Inc, Newport Beach, Calif.).

[6] = system: porcine smooth muscle cells; test: In vitro potency: growth suppression of smooth muscle cell cultures (porcine); type: cell-based; details: over five orders of magnitude concentration
[7] = high dose, drug load 325 μg, polymer coat 1300 μg, 28 days
[8] = low dose, drug load 180 μg, polymer coat 1300 μg
[9] = drug load 225 μg, polymer coat 225 μg, stent length 15 mm
[10] = high dose, drug load 325 μg, polymer coat 1300 μg, 6 months
[11] = med. dose, drug load 275 μg, polymer coat 640–780 μg

Row | SMILES | Mean lumen loss [1, 7] | Neointimal area [1, 7] | Diameter stenosis [1, 7] | Mean lumen loss [1, 8] | Neointimal area [1, 8] | Diameter stenosis [1, 8] | intercept of the zero injury (late loss) [3] | neointimal response to injury (slope of the regression line of late loss vs injury score) [3] | also measured
1 | CO[C@H]1C[C@@H]2CC[C@@H](C)[C@@](O)(O2)C(=O)C(=O)N2CCCC[C@H]2C(=O)O[C@H]([C@H](C)C[C@@H]2CC[C@@H](O)[C@H](OC)C2)CC(=O)[C@H](C)/C=C(\C)[C@@H](O)[C@@H](OC)C(=O)[C@H](C)C[C@H](C)/C=C/C=C/C=C/1C [rapamycin] | 1.07 mm | 3.75 mm^2 | 55.0% | 0.99 mm | 2.80 mm^2 | 43.0% |  |  | solubility in water [2]: 20 micrograms per milliliter
2 | COC1CC2CCC(C)C(O)(O2)C(=O)C(=O)N2CCCCC2C(=O)OC(C(C)CC2CCC(OCCCCCCCO)C(OC)C2)CC(=O)C(C)C=C(C)C(O)C(OC)C(=O)C(C)CC(C)C=CC=CC=C1C (stereo not shown) [42-O-hydroxy heptyl rapamycin] |  |  |  |  |  |  | 0.130 mm | 0.126 mm/injury score increment | 
3 | CCOCCO[C@@H]1CC[C@@H](C[C@@H](C)[C@@H]2CC(=O)[C@H](C)/C=C(\C)[C@@H](O)[C@@H](OC)C(=O)[C@H](C)C[C@H](C)/C=C/C=C/C=C(\C)[C@@H](OC)C[C@@H]3CC[C@@H](C)[C@@](O)(O3)C(=O)C(=O)N3CCCC[C@H]3C(=O)O2)C[C@H]1OC [42-O-(2-ethoxyethyl) rapamycin] |  |  |  |  |  |  | 0.126 mm | 0.83 mm/injury score increment | inhibition of growth of smooth muscle cells [4]: effectively inhibited growth of smooth muscle cells; also recorded: inhibited cellular growth as effectively as 42-O-hydroxy heptyl rapamycin (diamonds) or rapamycin; mean lumen late loss and percent diameter stenosis, comparison with the other stents ([1]; compared to rapamycin, everolimus, bare metal and polymer-coated stents): lowest mean lumen late loss and percent diameter stenosis; Mean lumen loss [1, 9]: 0.62 mm; Neointimal area [1, 9]: 1.30 mm^2; Diameter stenosis [1, 9]: 14.8%; drug load released into the bath [5]: less than half of the drug load released; inhibition of growth of smooth muscle cells [6]: effectively inhibited growth of smooth muscle cells; neointimal thickness at 30 days (late loss), comparison with other stents ([3]; FIGS. 10-11): lower neointimal thickness at 30 days; also recorded: therapeutic effect when compared to bare, metal stents
4 | CO[C@H]1C[C@@H]2CC[C@@H](C)[C@@](O)(O2)C(=O)C(=O)N2CCCC[C@H]2C(=O)O[C@H]([C@H](C)C[C@@H]2CC[C@@H](OCCO)[C@H](OC)C2)CC(=O)[C@H](C)/C=C(\C)[C@@H](O)[C@@H](OC)C(=O)[C@H](C)C[C@H](C)/C=C/C=C/C=C/1C [everolimus] | 0.84 mm | 3.54 mm^2 | 38.0% | 1.54 mm | 3.41 mm^2 | 53.0% |  |  | Mean lumen loss [1, 10]: 1.15 mm; Neointimal area [1, 10]: 4.18 mm^2; Diameter stenosis [1, 10]: 68.5%; Mean lumen loss [1, 11]: 0.85 mm; Neointimal area [1, 11]: 2.97 mm^2; Diameter stenosis [1, 11]: 45.0%
